# Experimental data taken from ChEMBL document CHEMBL1149459, “Partial structures of ketoconazole as modulators of the large conductance calcium-activated potassium channel (BK(Ca))” (Bioorg Med Chem Lett, 2006).
# How the values were obtained:
# [1] = biological target: T1, Large conductance calcium-activated potassium channel (Bos taurus) (UniProt Q28204+Q28067); test: Inhibition of large conductance calcium-activated potassium channel in bovine smooth muscle cells at 30 uM; assay type: functional, cell-based
# [2] = biological target: T1, Large conductance calcium-activated potassium channel (Bos taurus); test: Inhibition of large conductance calcium-activated potassium channel in bovine smooth muscle cells at 10 uM; assay type: functional, cell-based
SMILES,inhibition [1],inhibition [2]
O=C(OC[C@H]1CO[C@](Cn2ccnc2)(c2ccc(Cl)cc2Cl)O1)c1ccccc1,40%,
Clc1ccc([C@@]2(Cn3ccnc3)OC[C@H](COc3ccc(N4CCCCC4)cc3)O2)c(Cl)c1,,80%
Cc1ccc(S(=O)(=O)OC[C@H]2CO[C@](Cn3ccnc3)(c3ccc(Cl)cc3Cl)O2)cc1,2%,
Clc1ccc([C@@]2(Cn3ccnc3)OC[C@H](COc3ccccc3)O2)c(Cl)c1,73%,
Clc1ccc([C@@]2(Cn3ccnc3)OC[C@H](COc3ccc(Br)cc3)O2)c(Cl)c1,95%,
